Measured values taken from patent US4659721A, “Alkanol derivatives, and pharmaceutical preparation containing these compounds” (Ludwig Heumann & Co. GmbH, priority 1984, dated 1987).

How the values were obtained:
histamine-H2 receptors = target: T1, histamine-H2 receptors (Rattus norvegicus, UniProt P25102); assay: Gosh-Schild rat (Stimulator: histamine); format: in vivo; details: iv, i.V., read-out: ID50 (the source's name)
T1 construct: from tissue; host or cells: rat stomach, perfused (in vivo Ghosh-Schild preparation)
T1 sequence (P25102 whole entry, the tested form may be a part): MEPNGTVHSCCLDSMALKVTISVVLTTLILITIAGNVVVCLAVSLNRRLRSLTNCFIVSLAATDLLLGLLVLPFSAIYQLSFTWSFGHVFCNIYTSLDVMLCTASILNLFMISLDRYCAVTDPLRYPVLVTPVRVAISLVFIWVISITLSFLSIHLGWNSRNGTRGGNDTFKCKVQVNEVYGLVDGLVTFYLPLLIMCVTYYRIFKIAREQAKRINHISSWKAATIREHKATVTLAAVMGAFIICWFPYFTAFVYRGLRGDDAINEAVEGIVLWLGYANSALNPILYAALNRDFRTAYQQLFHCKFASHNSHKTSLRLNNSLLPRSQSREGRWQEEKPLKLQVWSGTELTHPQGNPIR
From the text: These compounds also antagonize the histamine action on the frequency of contraction of the isolated right atrium of the guinea-pig but have no effect on histamine induced contractions of isolated, smooth gastrointestinal muscle when these are produced by […].
Experimental model: Gosh-Schild rat

[1] = therapeutic use, several daily doses of tablets with dose units of 160 to 300 mg; cited from earlier work

SMILES | ED50 (histamine-H2 receptors) [µmol/kg] | half life [1]
CN/C(=N/CCSCc1nc[nH]c1C)NC#N [Cimetidine] | 1.4 | relatively short
Nc1n[s+]([O-])nc1NCC(O)COCc1cccc(CN2CCCCC2)c1 (stereo not shown) [Example 1, 3-[2-Hydroxy-3-[3-(1-piperidylmethyl)-benzyloxy]propylamino]-4-amino-1,2,5-thiadiazole-1-oxide] | 0.075 | 
CNC(=C[N+](=O)[O-])NCCSCc1ccc(CN(C)C)o1 [ranitidine] |  | relatively short
